From patent US9468661B2, “Pyrrolidine derivatives and their use as complement pathway modulators” (priority 2012, dated 2016)
pIC50: −log10 of the molar value.

Biological target: human factor D (Homo sapiens (Human), UniProt P00746)
Test: biochemical
Assay type: biochemical
Details: Factor D inhibition data using Method 1; recombinant human factor D 10 nM, substrate Z-Lys-thiobenzyl, fluorescence; read-out: IC50
Method: Human Complement Factor D Assay: Method 1
Recombinant human factor D (expressed in E. coli and purified using standard methods) at 10 nM concentration is incubated with test compound at various concentrations for 1 hour at room temperature in 0.1 M Hepes buffer, pH 7.5, containing 1 mM MgCl2, 1 M NaCl and 0.05% CHAPS. A synthetic substrate Z-Lys-thiobenzyl and 2,4-dinitrobenzenesulfonyl-fluoresceine are added to final concentrations of 200 μM and 25 μM, respectively. The increase in fluorescence is recorded at excitation of 485 nm and emission at 535 nm in a microplate spectrofluorimeter. IC50 values are calculated from percentage of inhibition of complement factor D-activity as a function of test compound concentration.

Sequence of human factor D (P00746 26-253): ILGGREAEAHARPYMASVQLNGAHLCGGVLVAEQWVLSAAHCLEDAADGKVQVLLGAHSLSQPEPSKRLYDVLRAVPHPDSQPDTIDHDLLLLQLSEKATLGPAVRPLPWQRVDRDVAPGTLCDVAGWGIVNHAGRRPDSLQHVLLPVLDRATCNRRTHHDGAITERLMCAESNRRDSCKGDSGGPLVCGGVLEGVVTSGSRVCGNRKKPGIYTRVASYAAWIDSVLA

Row | SMILES | pIC50
1 | NC(=O)c1nn(CC(=O)N2[C@@H]3C[C@@H]3C[C@H]2C(=O)NC[C@H]2CC2(Cl)Cl)c2cc(F)c(F)cc12 [Example 96, 1-(2-{(1R,3S,5R)-3-[((R)-2,2-Dichloro-cyclopropylmethyl)-carbamoyl]-2-aza-bicyclo[3.1.0]hex-2-yl}-2-oxo-ethyl)-5,6-difluoro-1H-indazole-3-carboxylic acid amide] | 6.51
2 | CC(=O)c1nn(CC(=O)N2[C@@H]3C[C@@H]3C[C@H]2C(=O)NC[C@@H]2C(C)(C)C2(Cl)Cl)c2ccc(OCc3ncccn3)cc12 [Example 103, (1R,3S,5R)-2-{2-[3-Acetyl-5-(pyrimidin-2-ylmethoxy)-indazol-1-yl]-acetyl}-2-aza-bicyclo[3.1.0] hexane-3-carboxylic acid ((S)-2,2-dichloro-3,3-dimethyl-cyclopropylmethyl)-amide] | 7.15
3 | CC(=O)c1nn(CC(=O)N2[C@@H]3C[C@@H]3C[C@H]2C(=O)NCC2CCCCC2F)c2cnccc12 (mixture of isomers) [Example 16, (1R,3S,5R)-2-[2-(3-Acetyl-pyrazolo[3,4-c]pyridin-1-yl)-acetyl]-2-aza-bicyclo[3.1.0] hexane-3-carboxylic acid (2-fluoro-cyclohexylmethyl)-amide (mixture of 4 diastereomers)] | 6.76
4 | NC(=O)c1nn(CC(=O)N2[C@@H]3C[C@@H]3C[C@H]2C(=O)NC[C@H]2CC2(Cl)Cl)c2ccc(Cl)cc12 [Example 97, 5-Chloro-1-(2-{(1R,3S,5R)-3-[((R)-2,2-dichloro-cyclopropylmethyl)-carbamoyl]-2-aza-bicyclo[3.1.0]hex-2-yl}-2-oxo-ethyl)-1H-indazole-3-carboxylic acid amide] | 6.66
5 | CC(=O)c1nn(CC(=O)N2[C@@H]3C[C@@H]3C[C@H]2C(=O)NCC2CCC(C)(C)CC2)c2cnccc12 [Example 4, (1R,3S,5R)-2-[2-(3-Acetyl-pyrazolo[3,4-c]pyridin-1-yl)-acetyl]-2-aza-bicyclo[3.1.0] hexane-3-carboxylic acid (4,4-dimethyl-cyclohexylmethyl)-amide] | 6.02
6 | NC(=O)c1nn(CC(=O)N2[C@@H]3C[C@@H]3C[C@H]2C(=O)NC[C@H]2CC2(Cl)Cl)c2cnccc12 [Example 72, 1-(2-{(1R,3S,5R)-3-[((R)-2,2-Dichloro-cyclopropylmethyl)-carbamoyl]-2-aza-bicyclo[3.1.0]hex-2-yl}-2-oxo-ethyl)-1H-pyrazolo[3,4-c]pyridine-3-carboxylic acid amide] | 7.44
7 | CC1CCCC(CNC(=O)[C@@H]2C[C@H]3C[C@H]3N2C(=O)Cn2nc(C(N)=O)c3ccncc32)C1 (single isomer, unassigned; dia 1) [Example 115] | 6.06
8 | C[C@@H](NC(=O)[C@@H]1C[C@@]2(CO)C[C@H]2N1C(=O)Cn1nc(C(N)=O)c2ccccc21)[C@H]1CC1(Cl)Cl [Example 57, 1-(2-{(1R,3S,5S)-3-[(R)-1-((R)-2,2-Dichloro-cyclopropyl)-ethylcarbamoyl]-5-hydroxymethyl-2-aza-bicyclo[3.1.0]hex-2-yl}-2-oxo-ethyl)-1H-indazole-3-carboxylic acid amide] | 7.77
9 | CO[C@H]1[C@@H](C(=O)NC[C@H]2CC2(Cl)Cl)N(C(=O)Cn2nc(C(N)=O)c3ccccc32)C[C@@H]1F [Example 42, 1-(2-{(2S,3S,4S)-2-[((R)-2,2-Dichloro-cyclopropylmethyl)-carbamoyl]-4-fluoro-3-methoxy-pyrrolidin-1-yl}-2-oxo-ethyl)-1H-indazole-3-carboxylic acid amide] | 6.95
10 | CC(=O)c1nn(CC(=O)N2[C@@H]3C[C@@H]3C[C@H]2C(=O)NCC2CCCC(C)C2)c2cnccc12 (single isomer, unassigned; dia 2) [Example 120] | 7.15
11 | CC(=O)c1nn(CC(=O)N2[C@@H]3C[C@@H]3C[C@H]2C(=O)NCC2CC3(CC3)C2)c2cnccc12 [Example 8, (1R,3S,5R)-2-[2-(3-Acetyl-pyrazolo[3,4-c]pyridin-1-yl)-acetyl]-2-aza-bicyclo[3.1.0] hexane-3-carboxylic acid (spiro[2.3]hex-5-ylmethyl)-amide] | 6.30
12 | CC(=O)c1nn(CC(=O)N2[C@@H]3C[C@@H]3C[C@H]2C(=O)NCC2(C)CC2(Cl)Cl)c2cnccc12 (stereo partly drawn) [Example 13, (1R,3S,5R)-2-[2-(3-Acetyl-pyrazolo[3,4-c]pyridin-1-yl)-acetyl]-2-aza-bicyclo[3.1.0] hexane-3-carboxylic acid (2,2-dichloro-1-methyl-cyclopropylmethyl)-amide] | 6.02
13 | NC(=O)c1nn(CC(=O)N2[C@@H]3C[C@@H]3C[C@H]2C(=O)NC[C@H]2CC2(Cl)Cl)c2ccccc12 [Example 31, 1-(2-{(1R,3S,5R)-3-[((R)-2,2-Dichloro-cyclopropylmethyl)-carbamoyl]-2-aza-bicyclo[3.1.0]hex-2-yl}-2-oxo-ethyl)-1H-indazole-3-carboxylic acid amide] | 7.49
14 | CC(=O)c1nn(CC(=O)N2[C@@H]3C[C@@H]3C[C@H]2C(=O)NC[C@H]2CC2(Cl)Cl)c2ccc(OC(C)c3ncccn3)cc12 (stereo partly drawn) [Example 100, (1R,3S,5R)-2-{2-[3-Acetyl-5-(1-pyrimidin-2-yl-ethoxy)-indazol-1-yl]-acetyl}-2-aza-bicyclo[3.1.0]hexane-3-carboxylic acid ((R)-2,2-dichloro-cyclopropylmethyl)-amide] | 6.80

Same assay, conditions: IC50, Factor D inhibition data using Method 1; recombinant human factor D 10 nM, substrate Z-Lys-thiobenzyl, fluorescence

Row | SMILES | pIC50
15 | CC(=O)c1nn(CC(=O)N2[C@@H]3C[C@@H]3C[C@H]2C(=O)NC(C)C2CC2(Cl)Cl)c2ccc(OCc3ncccn3)cc12 (single isomer, unassigned; dia 4) [Example 35] | 6.49
16 | CC1C(CNC(=O)[C@@H]2C[C@H]3C[C@H]3N2C(=O)Cn2nc(C(N)=O)c3ccccc32)C1(Cl)Cl (single isomer, unassigned; dia 1) [Example 77, 1-(2-{(1R,3S,5R)-3-[((1R,3S) or (1S,3R)-2,2-Dichloro-3-methyl-cyclopropylmethyl)-carbamoyl]-2-aza-bicyclo[3.1.0]hex-2-yl}-2-oxoethyl)-1H-indazole-3-carboxylic acid amide-Dia 1] | 7.46
17 | CC1C(CNC(=O)[C@@H]2C[C@H]3C[C@H]3N2C(=O)Cn2nc(C(N)=O)c3ccncc32)C1(Cl)Cl (single isomer, unassigned; dia 2) [Example 82, 1-(2-{(1R,3S,5R)-3-[((1R,3R) or (1S,3S)-2,2-Dichloro-3-methyl-cyclopropylmethyl)-carbamoyl]-2-aza-bicyclo[3.1.0]hex-2-yl}-2-oxo-ethyl)-1H-pyrazolo[3,4-c]pyridine-3-carboxylic acid amide-Dia 2] | 7.07
18 | CC1C(CNC(=O)[C@@H]2C[C@H]3C[C@H]3N2C(=O)Cn2nc(C(N)=O)c3ccncc32)C1(Cl)Cl (single isomer, unassigned; dia 2) [Example 80, 1-(2-{(1R,3S,5R)-3-[((1R,3S) or (1S,3R)-2,2-Dichloro-3-methyl-cyclopropylmethyl)-carbamoyl]-2-aza-bicyclo[3.1.0]hex-2-yl}-2-oxo-ethyl)-1H-pyrazolo[3,4-c]pyridine-3-carboxylic acid amide-Dia 2] | 7.01
19 | CC(=O)c1nn(CC(=O)N2[C@@H]3C[C@@H]3C[C@H]2C(=O)NCC2C(C)C2(Cl)Cl)c2ccc(OCc3ncccn3)cc12 (single isomer, unassigned; dia 2) [Example 109, (1R,3S,5R)-2-{2-[3-Acetyl-5-(pyrimidin-2-ylmethoxy)-indazol-1-yl]-acetyl}-2-aza-bicyclo[3.1.0] hexane-3-carboxylic acid ((1R,3S) or (1S,3R)-2,2-dichloro-3-methyl-cyclopropylmethyl)-amide-Dia 2] | 7.31
